Consider one molecule from PMC9508196 (Scientific Reports, 2022).

Converted amounts (≈) assume the structure as drawn. Non-standard residues stand in square brackets, D forms with d. Residues, ends and D or L forms follow the SMILES beside them.

This assay deals with A. baumannii ATCC 19,606. In words: microbe, parasite or virus in culture. The conditions noted are these: 20 serial 24-h passages at half-MIC, MHB. On the procedure:
A. baumannii ATCC 19,606 was adjusted to approximately 10^6 CFU/ml in MHB. […] After 24 h incubation, bacterial suspensions of the wells at half-MIC concentration of tested agent were taken and washed 2 times with MHB to prepare the next initial-passage of bacteria. Twenty repeat passages were performed for each tested compound. Along with the test, a negative control was included: the MIC value of bacteria cultured in MHB-deionized water after 20 passages.

On to `CC[C@@H](C)[C@@H](NC(=O)[C@@H](CCCCN)NC(=O)CNC(=O)[C@@H](C)NC(=O)[C@H](NC(=O)[C@@H](CCCCN)NC(=O)[C@@H](CCCCN)NC(=O)[C@H](NC(=O)[C@@H](CCCNC(=N)N)NC(=O)[C@@H](CCCNC(=N)N)NC(=O)[C@@H](Cc1ccccc1)NC(=O)[C@@H](CC(C)C)NC(=O)[C@H](N)CCCNC(=N)N)C(C)C)C(C)C)C(=O)N[C@H](C)C(=O)N[C@H](CCCCN)C(=O)N[C@H](CCCNC(=N)N)C(=O)N[C@@H](C(=O)N[C@H](Cc1c[nH]c2ccccc12)C(=O)N[C@H](CCCCN)C(N)=O)[C@H](C)CC` [D-AP19] (H-[dR][dL][dF][dR][dR][dV][dK][dK][dV][dA]G[dK][dI][dA][dK][dR][dI][dW][dK]-NH2), for which the “MIC after 20 passages” value is 7.81 mg/L (≈ 3.32 µM).
